The source of these data is patent US9981916B2 (Genentech, Inc., priority 2013, dated 2018).

This test has as its target T1, RORc ligand binding domain (Homo sapiens, UniProt P51449).
T1 construct: host or cells: E. coli
T1 sequence (P51449 269-508 limits assumed): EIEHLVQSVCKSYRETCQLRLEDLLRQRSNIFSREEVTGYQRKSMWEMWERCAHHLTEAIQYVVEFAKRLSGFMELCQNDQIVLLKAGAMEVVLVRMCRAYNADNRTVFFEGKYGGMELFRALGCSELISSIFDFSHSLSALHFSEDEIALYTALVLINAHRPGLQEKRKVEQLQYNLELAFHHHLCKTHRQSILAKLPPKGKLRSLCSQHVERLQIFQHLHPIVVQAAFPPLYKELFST
The experiment in a line: In vitro RORc ligand binding assay (25-[3H]hydroxycholesterol displacement, filter binding). To be noted: 6 nM 25-[3H]hydroxycholesterol, 0.6 ug/mL RORc receptor, 3 h at 25° C. The essentials:
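Compounds in 5% DMSO, either dose-response or screened at 1 and 10 uM, competed with 6 nM 25-[3H]hydroxycholesterol for 0.6 ug/mL RORc over 3 h at 25° C (HEPES pH 7.4, NaCl, MgCl2, DTT, BSA buffer). Bound tracer was filter-harvested and counted; nonspecific binding came from 1 uM 25-hydroxycholesterol.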
Consider `CCN(C[C@@]12CC[C@@H](c3cc(-c4c(F)cccc4F)nnc31)C2(C)C)C(=O)CC#N` [Example 160, 2-cyano-N-(((5R,8S)-3-(2,6-difluorophenyl)-9,9-dimethyl-5,6,7,8-tetrahydro-5,8-methanocinnolin-8-yl)methyl)-N-ethylacetamide], for which the IC50 (commonly the midpoint of a concentration-inhibition curve) is 27 nM.

Regarding `CC1(C)[C@H]2CC[C@]1(c1cnccn1)c1nnc(-c3c(F)cccc3F)cc12` [Example 161], the IC50 came to 90 nM. `CCN(C[C@@]12CC[C@@H](c3cc(-c4c(F)cccc4F)nnc31)C2(C)C)C(=O)CO` [Example 162, N-(((5R,8S)-3-(2,6-difluorophenyl)-9,9-dimethyl-5,6,7,8-tetrahydro-5,8-methanocinnolin-8-yl)methyl)-N-ethyl-2-hydroxyacetamide] showed an IC50 of 8 nM. As for `CCN(C[C@@]12CC[C@@H](c3cc(-c4c(F)cccc4F)nnc31)C2(C)C)c1ccccn1` [Example 163, N-(((5R,8S)-3-(2,6-difluorophenyl)-9,9-dimethyl-5,6,7,8-tetrahydro-5,8-methanocinnolin-8-yl)methyl)-N-ethylpyridin-2-amine], the figure is 6 nM; as for `CCN(C[C@@]12CC[C@@H](c3cc(-c4c(F)cccc4F)nnc31)C2(C)C)c1ncccn1` [Example 164, N-(((5R,8S)-3-(2,6-difluorophenyl)-9,9-dimethyl-5,6,7,8-tetrahydro-5,8-methanocinnolin-8-yl)methyl)-N-ethylpyrimidin-2-amine], 4 nM. As for `Cn1c([C@@]23CC[C@@H](c4cc(-c5c(F)cccc5F)nnc42)C3(C)C)cccc1=O` [Example 165, 6-((5R,8S)-3-(2,6-difluorophenyl)-9,9-dimethyl-5,6,7,8-tetrahydro-5,8-methanocinnolin-8-yl)-1-methylpyridin-2(1H)-one], the figure is 8 nM; as for `Cc1nnc(N(CC(F)F)C[C@@]23CC[C@@H](c4cc(-c5c(F)cccc5F)nnc42)C3(C)C)o1` [Example 166, N-(2,2-difluoroethyl)-N-(((5R,8S)-3-(2,6-difluorophenyl)-9,9-dimethyl-5,6,7,8-tetrahydro-5,8-methanocinnolin-8-yl)methyl)-5-methyl-1,3,4-oxadiazol-2-amine], 9 nM; as for `CC(C)(C)OC(=O)NCCC1CN(C(=O)[C@]23CC[C@H](c4cc(-c5c(F)cccc5F)nnc42)C3(C)C)C1` [Example 168, tert-butyl (2-(1-((5S,8S)-3-(2,6-difluorophenyl)-9,9-dimethyl-5,6,7,8-tetrahydro-5,8-methanocinnoline-8-carbonyl)azetidin-3-yl)ethyl)carbamate], 2970 nM. Consider `CC1(C)[C@H]2CC[C@]1(C(=O)Nc1ccccc1C#N)c1nnc(-c3ccccc3F)cc12` [Example 171, (5R,8R)-N-(2-cyanophenyl)-3-(2-fluorophenyl)-9,9-dimethyl-5,6,7,8-tetrahydro-5,8-methanocinnoline-8-carboxamide], for which the IC50 amounted to 3380 nM. With `CC1(C)[C@H]2CC[C@]1(C(=O)N1CC(F)(F)C1)c1nnc(-c3ccccc3F)cc12` [Example 172, (3,3-difluoroazetidin-1-yl)((5R,8R)-3-(2-fluorophenyl)-9,9-dimethyl-5,6,7,8-tetrahydro-5,8-methanocinnolin-8-yl)methanone] the figure was 1410 nM. As for `COC1CCN(C(=O)[C@@]23CC[C@@H](c4cc(-c5ccccc5F)nnc42)C3(C)C)CC1` [Example 173, ((5R,8R)-3-(2-fluorophenyl)-9,9-dimethyl-5,6,7,8-tetrahydro-5,8-methanocinnolin-8-yl)(4-methoxypiperidin-1-yl)methanone], the figure is 2470 nM; as for `CC(C)(C#N)NC(=O)[C@@]12CC[C@@H](c3cc(-c4ccccc4F)nnc31)C2(C)C` [Example 174, (5R,8R)-N-(2-cyanopropan-2-yl)-3-(2-fluorophenyl)-9,9-dimethyl-5,6,7,8-tetrahydro-5,8-methanocinnoline-8-carboxamide], 3080 nM. With `CC1(C)[C@H]2CC[C@]1(C(=O)NC1CCCC1)c1nnc(-c3ccccc3F)cc12` [Example 175, (5R,8R)-N-cyclopentyl-3-(2-fluorophenyl)-9,9-dimethyl-5,6,7,8-tetrahydro-5,8-methanocinnoline-8-carboxamide] the figure was 1160 nM; with `CC1(C)[C@H]2CC[C@]1(C(=O)NCCO)c1nnc(-c3ccccc3F)cc12` [Example 176, (5R,8R)-3-(2-fluorophenyl)-N-(2-hydroxyethyl)-9,9-dimethyl-5,6,7,8-tetrahydro-5,8-methanocinnoline-8-carboxamide], 2670 nM. In the case of `CC1(C)[C@H]2CC[C@]1(C(=O)NC1CCC1)c1nnc(-c3ccccc3F)cc12` [Example 177, (5R,8R)-N-cyclobutyl-3-(2-fluorophenyl)-9,9-dimethyl-5,6,7,8-tetrahydro-5,8-methanocinnoline-8-carboxamide], the IC50 was 1500 nM. As for `CNC(=O)[C@@]12CC[C@@H](c3cc(-c4ccccc4F)nnc31)C2(C)C` [Example 178, (5R,8R)-3-(2-fluorophenyl)-N,9,9-trimethyl-5,6,7,8-tetrahydro-5,8-methanocinnoline-8-carboxamide], the figure is 2050 nM. `Cc1c[nH]nc1C1CN(C(=O)[C@@]23CC[C@@H](c4cc(-c5ccccc5F)nnc42)C3(C)C)C1` [Example 179, ((5R,8R)-3-(2-fluorophenyl)-9,9-dimethyl-5,6,7,8-tetrahydro-5,8-methanocinnolin-8-yl)(3-(4-methyl-1H-pyrazol-3-yl)azetidin-1-yl)methanone]: the IC50 amounted to 2810 nM.

Consider `CNC(=O)C1CN(C(=O)[C@@]23CC[C@@H](c4cc(-c5ccccc5F)nnc42)C3(C)C)CCO1` (stereo partly drawn) [Example 180, 4-((5R,8R)-3-(2-fluorophenyl)-9,9-dimethyl-5,6,7,8-tetrahydro-5,8-methanocinnoline-8-carbonyl)-N-methylmorpholine-2-carboxamide], for which the IC50 came out at 3810 nM. As for `Cc1ccnc(C2CN(C(=O)[C@@]34CC[C@@H](c5cc(-c6ccccc6F)nnc53)C4(C)C)C2)n1` [Example 181, ((5R,8R)-3-(2-fluorophenyl)-9,9-dimethyl-5,6,7,8-tetrahydro-5,8-methanocinnolin-8-yl)(3-(4-methylpyrimidin-2-yl)azetidin-1-yl)methanone], the figure is 2750 nM; as for `CC1(C)[C@H]2CC[C@]1(C(=O)N1CC(c3cc[nH]n3)C1)c1nnc(-c3ccccc3F)cc12` [Example 182, (3-(1H-pyrazol-3-yl)azetidin-1-yl)((5R,8R)-3-(2-fluorophenyl)-9,9-dimethyl-5,6,7,8-tetrahydro-5,8-methanocinnolin-8-yl)methanone], 3000 nM. With `CC(NC(=O)[C@@]12CC[C@@H](c3cc(-c4ccccc4F)nnc31)C2(C)C)c1ccccc1` (stereo partly drawn) [Example 183, (5R,8R)-3-(2-fluorophenyl)-9,9-dimethyl-N-(1-phenylethyl)-5,6,7,8-tetrahydro-5,8-methanocinnoline-8-carboxamide] the figure was 1000 nM; with `CC1(C)[C@H]2CC[C@]1(N1CCNC1=O)c1nnc(-c3c(F)cccc3F)cc12` [Example 184, 1-((5R,8R)-3-(2,6-difluorophenyl)-9,9-dimethyl-5,6,7,8-tetrahydro-5,8-methanocinnolin-8-yl)imidazolidin-2-one], 171 nM; with `CC1(C)[C@H]2CC[C@]1(c1ncn[nH]1)c1nnc(-c3c(F)cccc3F)cc12` [Example 185, (5R,8R)-3-(2,6-difluorophenyl)-9,9-dimethyl-8-(1H-1,2,4-triazol-5-yl)-5,6,7,8-tetrahydro-5,8-methanocinnoline], 2200 nM. As for `Cn1ccc([C@@]23CC[C@@H](c4cc(-c5c(F)cccc5F)nnc42)C3(C)C)n1` [Example 186], the figure is 152 nM. Compound `CC1(C)[C@H]2CC[C@]1(C(=O)NC1COC1)c1nnc(-c3c(F)cccc3F)cc12` [Example 187, (5R,8R)-3-(2,6-difluorophenyl)-9,9-dimethyl-N-(oxetan-3-yl)-5,6,7,8-tetrahydro-5,8-methanocinnoline-8-carboxamide] gave an IC50 of 2400 nM. With `COC1CN(C(=O)[C@@]23CC[C@@H](c4cc(-c5c(F)cccc5F)nnc42)C3(C)C)C1` [Example 188, ((5R,8R)-3-(2,6-difluorophenyl)-9,9-dimethyl-5,6,7,8-tetrahydro-5,8-methanocinnolin-8-yl)(3-methoxyazetidin-1-yl)methanone] the figure was 2460 nM; with `CC(C)OC1CN(C(=O)[C@@]23CC[C@@H](c4cc(-c5c(F)cccc5F)nnc42)C3(C)C)C1` [Example 190, ((5R,8R)-3-(2,6-difluorophenyl)-9,9-dimethyl-5,6,7,8-tetrahydro-5,8-methanocinnolin-8-yl)(3-isopropoxyazetidin-1-yl)methanone], 1840 nM. With `Cc1cc([C@@]23CC[C@@H](c4cc(-c5c(F)cccc5F)nnc42)C3(C)C)[nH]n1` [Example 191, (5R,8S)-3-(2,6-difluorophenyl)-9,9-dimethyl-8-(3-methyl-1H-pyrazol-5-yl)-5,6,7,8-tetrahydro-5,8-methanocinnoline] the figure was 123 nM; with `Cc1nc([C@@]23CC[C@@H](c4cc(-c5c(F)cccc5F)nnc42)C3(C)C)co1` [Example 192, 4-((5R,8S)-3-(2,6-difluorophenyl)-9,9-dimethyl-5,6,7,8-tetrahydro-5,8-methanocinnolin-8-yl)-2-methyloxazole], 202 nM.
